# How the values were obtained:
# [1] = target: T1, CDK7/Cyclin H/MAT-1 complex (Homo sapiens, UniProt P50613); assay: Absorbance kinetic assay (20 nM CDK7/Cyclin H/MAT-1 complex); type: biochemical; details: for IC50: read-out: CDK7 (20 nM) pIC50 (converted)
# T1 construct: Human CDK7 (amino acids 1-346); His6 (N); TEV protease cleavage site (N); made in house; host or cells: baculovirus-SF9 insect cells
# Summary of the method: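 Trimeric complex (His6-TEV CDK7 1-346, MAT1 1-309, cyclin H 1-323) from Sf9 cells, at 20 nM, phosphorylating RNA Pol II-derived CDK7/9-tide; ADP coupled via PK/LDH to NADH depletion read at 340 nm every 2 min for 8 h. Steady-state slopes gave % inhibition; IC50 from 11-point Hill fit.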
# [2] = target: T1, CDK7/Cyclin H/MAT-1 complex; assay: Flint assay, end-point fluorescence (5 nM CDK7/Cyclin H/MAT-1 complex); type: biochemical; details: for IC50: read-out: CDK7 (5 nM) pIC50 (converted)
# Summary of the method: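 Trimeric complex of His6-TEV-tagged human CDK7 (1-346), MAT1 (1-309) and cyclin H (1-323), co-expressed in Sf9 cells, at 5 nM final, with substrates and coupling reagents as in the absorbance assay; 24 h reaction. End-point NADH fluorescence decrease (ex 340/em 440 nm); % inhibition versus no-inhibitor and full-inhibition controls, IC50 from four-parameter Hill fit.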
# T1 sequence (P50613 whole entry, the tested form may be a part): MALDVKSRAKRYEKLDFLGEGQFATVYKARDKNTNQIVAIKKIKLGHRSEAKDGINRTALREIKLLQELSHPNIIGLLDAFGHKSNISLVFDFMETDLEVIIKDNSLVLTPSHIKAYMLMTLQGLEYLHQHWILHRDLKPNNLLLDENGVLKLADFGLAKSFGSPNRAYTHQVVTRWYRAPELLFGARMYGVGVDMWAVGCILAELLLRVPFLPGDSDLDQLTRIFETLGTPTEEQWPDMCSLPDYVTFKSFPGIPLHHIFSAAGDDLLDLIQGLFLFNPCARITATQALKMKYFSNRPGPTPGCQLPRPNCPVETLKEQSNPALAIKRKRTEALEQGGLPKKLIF
# T1 sequence (P51946 whole entry partner, the tested form may be a part): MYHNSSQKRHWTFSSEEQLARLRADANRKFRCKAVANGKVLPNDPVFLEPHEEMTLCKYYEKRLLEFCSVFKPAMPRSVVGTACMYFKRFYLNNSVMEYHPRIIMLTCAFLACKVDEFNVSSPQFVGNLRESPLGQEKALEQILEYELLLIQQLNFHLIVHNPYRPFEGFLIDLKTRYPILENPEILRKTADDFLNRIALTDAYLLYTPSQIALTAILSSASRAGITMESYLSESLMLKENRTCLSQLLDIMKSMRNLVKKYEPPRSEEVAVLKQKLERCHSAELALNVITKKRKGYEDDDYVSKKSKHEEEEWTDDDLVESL
# T1 sequence (P51948 whole entry partner, the tested form may be a part): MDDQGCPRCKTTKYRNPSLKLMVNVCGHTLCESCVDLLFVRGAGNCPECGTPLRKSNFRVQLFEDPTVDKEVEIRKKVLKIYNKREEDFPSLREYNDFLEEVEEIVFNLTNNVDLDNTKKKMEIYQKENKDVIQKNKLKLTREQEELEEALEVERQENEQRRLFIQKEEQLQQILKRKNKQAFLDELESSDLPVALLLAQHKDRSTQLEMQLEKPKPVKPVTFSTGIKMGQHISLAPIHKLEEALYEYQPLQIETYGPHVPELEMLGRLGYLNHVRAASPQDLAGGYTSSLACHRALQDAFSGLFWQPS
IC50 [1],IC50 [2],CDK7 (20 nM) pIC50 [1],CDK7 (5 nM) pIC50 [2],SMILES
12.3 nM,5.13 nM,–,–,"C[C@@H]1Cc2cnc(N[C@H](C)c3ccn(C)n3)nc2CN1C(=O)[C@H]1CCN(C)C[C@@H]1c1ccccc1 (single isomer, unassigned) [Compound 54]"
–,–,>8.01,8.68,C[C@@H]1c2nc(NC3CCOCC3)ncc2[C@@H](C)CN1C(=O)[C@H]1CCN(C)C[C@@H]1c1ccccc1 [Compound 180a]
28.8 nM,12.3 nM,–,–,CO[C@H]1CC[C@H](Nc2cc3c(cn2)C[C@H](C)N(C(=O)[C@@H]2CCN(C)C[C@H]2c2cccc(C)c2)C3)CC1 [Compound 177a]
15.5 nM,3.72 nM,–,–,Cc1cccc([C@H]2CN(C)CC[C@@H]2C(=O)N2Cc3nc(Nc4cnn(C)c4)ncc3C[C@H]2C)c1 (relative stereo) [Compound 126]
–,–,7.46,8.04,C[C@@H]1Cc2cnc(Nc3ccnc(C(F)F)c3)nc2CN1C(=O)[C@H]1CCN(C)C[C@@H]1c1ccccc1 [Compound 75]

# — patent US12679839B2, “Cyclin-dependent kinase 7 (CDK7) non-covalent inhibitors” (JANSSEN PHARMACEUTICA NV, priority 2020, dated 2026)
